Measured values as given in US20240408116A1, “COMPOSITIONS FOR ENHANCING SEXUAL PLEASURE WITH REDUCED PHAR[…] OF PDE5 INHIBITOR” (priority 2023, published 2024).

Tested on: male participants
Assay: Male participants rated strength of erections and orgasms on a scale of 1 to 10 after ingesting PDE5 inhibitor and cannabis/THC
Assay type: in vivo, human

Measured: PDE5 inhibiting effect of THC taken alone

Method: Male participants rated the strength of their erections and orgasms, and female participants rated the strength of their threshold desire, arousal and orgasms, on a scale of 1 to 10.
This first time, the subject took the full prescription dose of sildenafil (100 mg) in pill form together with an infused cannabis edible containing 20 mg of THC.
The subject in Examples 1 and 2 further reduced the dosage of sildenafil to 40 mg, 30 mg, and 20 mg in stages, together with cannabis dosages that delivered 20 mg, 15 mg, or 10 mg of THC.
A test subject consumed ingestible dosage forms of cannabis and sildenafil. This first time, the subject took 50% of the full prescription dose of sildenafil (50 mg) in pill form together with an infused cannabis edible containing 20 mg of THC.
The subject in Example 4 further reduced the dosage of sildenafil to 40 mg and used the same cannabis dosage that delivered 20 mg of THC.
The subject in Examples 4 and 5 further reduced the dosage of sildenafil to 30 mg, 20 mg, and 10 mg in stages, together with cannabis dosages that delivered 20 mg, 15 mg, or 10 mg of THC.
A test subject consumed ingestible dosage forms of cannabis and sildenafil. This first time, the subject took 60% of the full prescription dose of sildenafil (60 mg) in pill form together with an infused cannabis edible containing 25 mg of THC.
The test subject in Example 7 further reduced the dosage of sildenafil to 40 mg and used a cannabis dosage that delivered 20 mg of THC.
The subject in Examples 7 and 8 further reduced the dosage of sildenafil to 30 mg, 20 mg, and 10 mg in stages, together with cannabis dosages that delivered 20 mg, 15 mg, or 10 mg of THC.

CCCCCc1cc(O)c2c(c1)OC(C)(C)[C@@H]1CCC(C)=C[C@@H]21 [THC, tetrahydrocannabinol]
no noticeable PDE5 inhibiting effect: Example 1: person | Example 4: person | Example 7: person | Example 10: person
